Like-named read-outs stand apart in the source and are kept apart here.
What was measured:
[1] = G. Antlsperger, 6th International Symposium on Cyclodextrins, 1992; cited from earlier work
[2] = cited from earlier work
[3] = cited from earlier work; remark: listed apart in the source
[4] = zahn-wellens test, 336 h
Procedure: The biological degradability was determined by means of the Zahn-Wellens Test (OECD Guidelines for testing of Chemicals 302B, Adopted by the Council on 17th Jul. 1992).

OC[C@H]1O[C@@H]2O[C@H]3[C@H](O)[C@@H](O)[C@@H](O[C@H]4[C@H](O)[C@@H](O)[C@@H](O[C@H]5[C@H](O)[C@@H](O)[C@@H](O[C@H]6[C@H](O)[C@@H](O)[C@@H](O[C@H]7[C@H](O)[C@@H](O)[C@@H](O[C@H]8[C@H](O)[C@@H](O)[C@@H](O[C@H]9[C@H](O)[C@@H](O)[C@@H](O[C@H]1[C@H](O)[C@H]2O)O[C@@H]9CO)O[C@@H]8CO)O[C@@H]7CO)O[C@@H]6CO)O[C@@H]5CO)O[C@@H]4CO)O[C@@H]3CO [γ-CD, γ-cyclodextrin]
toxicological properties [1]: favorable toxicological properties | precipitation of complexes at higher concentrations ([2]; U.S. Pat. No. 4,764,604): frequently precipitate out at higher concentrations | solubilizing capacity / properties ([2]; prior art statement): comparatively low | solubility in water ([3]; native γ-cyclodextrin): 18.7 % by weight | solubility in water ([3]; prior art statement): comparatively poorly soluble in water

Acetyl-γ-CD (DS, 0.83) [Ex. 2 Ac-gamma-CD(0.83)]
Degradation ZaWe-14d [4]: 98%

Methyl-γ-cyclodextrin (DS,1.8) [Me-gamma-CD(1.8)]
Degradation ZaWe-14d [4]: 14%

hydroxypropyl-γ-cyclodextrin [Hp-gamma-CD(0.9)]
Degradation ZaWe-14d [4]: 25%
